Laboratory results reported in patent US5968751A, “Method for detecting the presence of protein C antibody in a fluid sample” (The Scripps Research Institute, priority 1997, dated 1999).
No end group written: not given here.

Columns and labels:
Factor Xa = biological target: T1, Factor Xa (Homo sapiens, UniProt P00742); test: Factor Xa amidolytic activity towards chromogenic substrates; type: biochemical
T1 construct: purchased Enzyme Research Laboratories, Southbend, Ind
Method: To determine the effect of the APC-inhibiting peptides, PC311-325 and PC142-155, on the amidolytic activity of Factor Xa, amidolytic assays as described for APC in Example 5a3 were performed using 0.15 nM Factor Xa in the presence of increasing amounts of peptide. Peptide PC311-325 ranged in concentration from 0 to 100 μM whereas peptide PC142-155 ranged in concentration from 0 to 50 μM.
For the assay, 100 μl of 0.15 nM factor Xa, prepared in Example 5a5) were admixed with separate aliquots of either peptide prepared in TBS-BSA at pH 7.4 containing 0.02% NaN3 and 2 mM CaCl2 to form APC-peptide admixtures. After maintenance of the admixtures for 30 minutes at 37° C., 50 μl of 2.4 mM S-2222 in the same buffer were admixed to initiate the amidolytic reaction. The hydrolysis of the substrate was measured as described before.

APC = APC (Homo sapiens, UniProt P04070); test: amidolytic activity of APC towards S-2366; type: biochemical; parameters: Protein C consists of a 155 amino acid residue light chain and a 262 amino acid residue heavy chain; from tissue; host or cells: human plasma factor IX concentrate; conditions: for Change in A405 /5 minutes: 10 nM APC, 250 μM PC311-325, 500 μM PC142-155, 30 minutes at 37° C., S-2366
Method: The amidolytic activity of APC toward the peptide substrate S-2366 was measured in the presence of various PC synthetic peptides derived from both the heavy and light chain, prepared in Example 1. For the assay, 100 μl of 10 nM APC, prepared in Example 2c2), were admixed with separate aliquots of 250 μM of PC311-325 and 500 μM Df PC142-155 prepared in TBS-BSA at pH 7.4 containing 0.02% NaN3 and 2 mM CaCl2 to form APC-peptide admixtures. After maintenance of the admixtures for 30 minutes at 37° C., 50 μl of 2.4 mM S-2366 in the same buffer were admixed to initiate the amidolytic reaction. The hydrolysis of the substrate was monitored by the change in absorbance at 405 nm at 37° C. over time using an EL312 Microplate Bio-Kinetics Reader (BIO-TEK Instruments, Inc. Vermont.). All data are mean values of duplicate measurements.
The amidolytic activity of APC toward the peptide substrate S-2366 was measured in the presence of anti-PC317-331 antibody. For the assay, 100 μl of 15 nM APC, prepared in Example 2c2), were admixed with separate aliquots of anti-PC317-331 antibody ranging in concentration from […] prepared in TBS-BSA at pH 7.4 containing 0.02% NaN3 and 2 mM CaCl2 to form APC-anti-PC317-331 antibody immunoreaction admixtures. After maintenance of the admixtures for 30 minutes at 37° C. to allow formation of immunoreaction products, 50 μl of 2.4 mM S-2366 in the same buffer was admixed to initiate the amidolytic reaction. The hydrolysis of the substrate was monitored by the change in absorbance at 405 nm over time using an EL312 Microplate Bio-Kinetics Reader (BIO-TEK Instruments, Inc. Vermont.).

Sequence of APC (P04070 43-197 limits assumed): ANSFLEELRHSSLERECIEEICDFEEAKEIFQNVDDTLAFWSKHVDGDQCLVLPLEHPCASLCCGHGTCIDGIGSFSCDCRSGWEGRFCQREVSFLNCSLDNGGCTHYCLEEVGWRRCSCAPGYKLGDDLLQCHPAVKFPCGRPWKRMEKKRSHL
Sequence of APC (P04070 212-450 limits assumed): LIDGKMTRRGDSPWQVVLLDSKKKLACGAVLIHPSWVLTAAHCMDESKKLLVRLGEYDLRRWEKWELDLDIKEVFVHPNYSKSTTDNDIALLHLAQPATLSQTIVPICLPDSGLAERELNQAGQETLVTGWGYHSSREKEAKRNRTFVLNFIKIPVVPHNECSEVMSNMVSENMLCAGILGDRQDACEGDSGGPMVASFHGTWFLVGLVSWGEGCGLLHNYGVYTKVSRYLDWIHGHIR
T1 sequence (P00742 41-179 limits assumed): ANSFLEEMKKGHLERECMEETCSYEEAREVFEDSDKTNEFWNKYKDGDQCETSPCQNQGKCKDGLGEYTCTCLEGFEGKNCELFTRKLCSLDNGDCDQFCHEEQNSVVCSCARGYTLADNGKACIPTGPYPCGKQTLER
T1 sequence (P00742 235-488 limits assumed): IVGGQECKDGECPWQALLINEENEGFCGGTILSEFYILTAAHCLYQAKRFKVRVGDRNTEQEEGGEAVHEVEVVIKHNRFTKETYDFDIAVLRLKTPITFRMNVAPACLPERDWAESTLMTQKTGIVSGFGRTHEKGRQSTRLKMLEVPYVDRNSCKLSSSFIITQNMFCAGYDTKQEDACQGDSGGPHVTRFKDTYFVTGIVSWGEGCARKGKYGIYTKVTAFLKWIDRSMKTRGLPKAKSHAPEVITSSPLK

KRNRTFVLNFIKIPV-NH2 [PC311-325, Lys-Arg-Asn-Arg-Thr-Phe-Val-Leu-Asn-Phe-Ile-Lys-Ile-Pro-Val]
effect on Factor Xa amidolytic activity towards chromogenic substrates (Factor Xa): no significant effect
Change in A405 /5 minutes (APC): 0.342
effect on APC amidolytic activity towards S-2366 (APC; up to 250 μM PC311-325 or 500 μM PC142-155, 30 min at 37° C.): no significant effect

MHKLREGKWRPKSR [Scrambled peptide, reference compound]
effect on Factor Xa amidolytic activity towards chromogenic substrates (Factor Xa): no significant effect
Change in A405 /5 minutes (APC): 0.364
